# According to US10513697B2, “CO2 profile cultivation” (Hoffmann-La Roche Inc., priority 2011, dated 2019):
# Tests used:
# [1] = test system: control cell line in HyQ medium (Control HyQ, non-transfected CHO cell line); test: Re-alkalinization experiment (pHi recovery after CO2 acid load, flow cytometry) in control cell line; format: cell-based, Chinese Hamster
# Description: To examine the effect of hCAII expression on the cell internal pH value (pHi), the control cell line in HyQ medium and clone E11 were submitted to a short term acidification. This was achieved by mixing the cells with a CO2-containing solution and measuring the subsequent pHi recovery. […] A replicate of this experiment was performed with the carbonic anhydrase II inhibitor ethoxyzolamide and the results are presented in FIGS. 7(A) and 7(B). […] The following Table summarizes some of the characteristics of the tested cell lines.
# pHi measurements were carried out by flow cytometry with the available pHi fluorescent indicator, Carboxy SNARF-1 AM (Molecular Probes Inc.). This dye is an acetoxymethyl (AM) ester that enter the cells readily and is hydrolyzed by non-specific esterases to yield the free fluorescent dye. SNARF-1 AM is very sensitive to pHi changes within the physiological range. It is excited between 488 nm and 530 nm and the fluorescence emission is monitored at two wavelengths, typically about 580 nm (FL2-H) and 640 nm (FL3-H). This is particularly interesting as the fluorescence emission wavelength ratio can be calculated foe a more accurate determination of the pHi. With the use of this ratiometric technique, a number of fluorescence measurement artifacts are eliminated, such as photobleaching, cell thickness and leakage and non-uniform loading of the indicator (SNARF® pH indicators, Product information, 2003, Molecular Probes Inc.). Herein the Pseudo-Null calibration method was used. […] A simplification can be considered if the calibration solutions are prepared in such a way that a concentration of weak base and a concentration of weak acid produce an equal but opposite change in pHi (i.e., pHa=pHb). The derived relationship for pHi determination is presented in Equation 10.11.
# The regulation of the pHi was studied by flow cytometric analysis during intracellular acidification with bicarbonate. The kinetic of the transporters were examined. This test was made at physiological conditions. Therefore medium was used instead of buffer to account for influences of other medium components. To eliminate the activity of other cellular pHi-regulation systems, cells were pre-incubated in bicarbonate-free medium buffered with HEPES. […] This system consisting of two disposable 5 ml Luer-Lock syringes (B. Braun AG, Melsungen, Germany) connected by a short tubing and two Luer tubing connectors (Rotilabo®). These Luer connectors permitted the rapid and easy connection/disconnection of the 2 syringes.
# Syringe A contained stained cells in bicarbonate-free production medium and syringe B production medium with 4.2 g/l NaHCO3 (corresponding to […] at pH 7.2). Both media contained 20 mM HEPES and were adjusted to pH 7.2 at 37° C. Acid-load was achieved by pressing bicarbonate-containing medium from syringe B into syringe A. A 5 ml syringe was pre-loaded with 22 μl of SNARF-1 AM (2 mM stock solution; Table 3). 1×10^6 cells, from the exponential phase, were harvested and washed once with 4 ml medium without bicarbonate. After which, the cell suspension was sucked (without air bubbles) into the pre-loaded fluorescence dye syringe, which was them closed with the Luer-stopper and gently mixed. […] The syringe B was discarded, syringe A was closed and after short mixing, the acid-loaded cells were analyzed by flow cytometry. Additionally, some samples were measured with the blood gas analyzer to determine the content of CO2 in medium during the experiment. […]
# [2] = test system: hCAII-expressing CHO cell clone E11; test: Re-alkalinization experiment (pHi recovery after CO2 acid load, flow cytometry) in hCAII-expressing clone; format: cell-based, Chinese Hamster
# Description: pHi measurements were carried out by flow cytometry with the available pHi fluorescent indicator, Carboxy SNARF-1 AM (Molecular Probes Inc.). This dye is an acetoxymethyl (AM) ester that enter the cells readily and is hydrolyzed by non-specific esterases to yield the free fluorescent dye. SNARF-1 AM is very sensitive to pHi changes within the physiological range. It is excited between 488 nm and 530 nm and the fluorescence emission is monitored at two wavelengths, typically about 580 nm (FL2-H) and 640 nm (FL3-H). This is particularly interesting as the fluorescence emission wavelength ratio can be calculated foe a more accurate determination of the pHi. […] Herein the Pseudo-Null calibration method was used. […] A simplification can be considered if the calibration solutions are prepared in such a way that a concentration of weak base and a concentration of weak acid produce an equal but opposite change in pHi (i.e., pHa=pHb). The derived relationship for pHi determination is presented in Equation 10.11.
# Syringe A contained stained cells in bicarbonate-free production medium and syringe B production medium with 4.2 g/l NaHCO3 (corresponding to 25% CO2 at pH 7.2). Both media contained 20 mM HEPES and were adjusted to pH 7.2 at 37° C. Acid-load was achieved by pressing bicarbonate-containing medium from syringe B into syringe A. A 5 ml syringe was pre-loaded with 22 μl of SNARF-1 AM (2 mM stock solution; Table 3). 1×10^6 cells, from the exponential phase, were harvested and washed once with 4 ml medium without bicarbonate. After which, the cell suspension was sucked (without air bubbles) into the pre-loaded fluorescence dye syringe, which was them closed with the Luer-stopper and gently mixed. After a 25 min. period of incubation at 37° C. in the dark, with regularly mixing to avoid cell settling, followed dissolved gas and flow cytometric analysis. Three measurements of loaded cells in bicarbonate-free medium were made before acidification of cells cytoplasm. Afterwards, the syringe B was connected to syringe A and the double volume of NaHCO3-containing medium was added. The syringe B was discarded, syringe A was closed and after short mixing, the acid-loaded cells were analyzed by flow cytometry. Additionally, some samples were measured with the blood gas analyzer to determine the content of CO2 in medium during the experiment.
# To test if the re-alkalinization effect was due to the hCAII-overexpression, the hCAII inhibitor ethoxyzolamide (ACTZ) was used. […]
compound,measurement,setting,value
"CCOc1ccc2nc(S(N)(=O)=O)sc2c1 [ACTZ, ethoxyzolamide]",Steady state pHi,"[1]; Control HyQ + ACTZ, 100 μM ethoxyzolamide in media, pHe 7.10",7.02
same,pHi (acid load),"[1]; Control HyQ + ACTZ, 100 μM ethoxyzolamide, about 9% CO2 acid load",6.84
same,pHi/min (5 min),"[1]; Control HyQ + ACTZ, 100 μM ethoxyzolamide, initial recovery rate of first 5 min after acid load",0.049 pHi/min
same,decrease on the re-alkalinization rate,"[1]; control cell line in HyQ medium, in the presence of the inhibitor",30%
same,time after exposure to CO2-containing medium at which steady state pHi was exceeded,"[1]; hCAII inhibited reaction, control cell line in HyQ medium (11 min. without inhibitor)",5 min.
same,Steady state pHi,"[2]; Clone E11 + ACTZ, 100 μM ethoxyzolamide in media, pHe 7.11",6.87
same,pHi (acid load),"[2]; Clone E11 + ACTZ, 100 μM ethoxyzolamide, about 9% CO2 acid load",6.61
same,pHi/min (5 min),"[2]; Clone E11 + ACTZ, 100 μM ethoxyzolamide, initial recovery rate of first 5 min after acid load",0.057 pHi/min
same,decrease on the re-alkalinization rate,"[2]; clone E11, in the presence of the inhibitor",19%
same,time after exposure to CO2-containing medium at which steady state pHi was exceeded,"[2]; hCAII inhibited reaction, clone E11 (8 min. without inhibitor)",5 min.
